Where two headings read alike, the source gives them in different places.
Tested on: HBMEC monolayer
[1] = matrix ASFE extract 24 µg/mL, 2 h incubation, n.d = not detected in lower compartment
[2] = matrix ASFE extract 24 µg/mL, 4 h incubation, n.d = not detected in lower compartment

Experimental: The cell line HBMEC was used as a simplified in vitro model of the BBB endothelium. […] Endothelial cell cultures were maintained at 37 °C in a humid atmosphere enriched with 5% CO2. In our studies, HBMEC were used between passage 25 and 29. For experiments, HBMECs were seeded using a volume of 200 µL at a density of 8 × 10^4 cells/mL in rat tail collagen-I (100 µg/mL) coated 96-well plates (for viability assay) or 500 µL at a density of 1.6 × 10^5 cells/mL in rat tail collagen-I (100 µg/mL) coated semi-permeable membranes in transwell inserts (0.4 µm pore, Corning Costar Corp., USA; for BBB integrity and transport assays) for 12-well plates. The incubation timepoints were assay dependent.
For the transendothelial transport assays, HBMEC were seeded on transwell inserts as described above and are schematically depicted in Figure 1a. After seeding, the media were changed every two days. Four days post-seeding, the HBMEC monolayer was formed, and the transport studies were performed. […] Vupper and Vlower is the upper and lower compartment volume (0.5 and 1.5 mL, respectively). The culture inserts were used for the subsequent integrity permeability studies.

Compound	Te % (SEM) 2 h	Te % (SEM) 4 h	also measured
CC[C@H](/C=C/[C@@H](C)[C@H]1CC[C@H]2[C@@H]3CC=C4C[C@@H](O)CC[C@]4(C)[C@H]3CC[C@]12C)C(C)C [Stigmasterol]	–	–	Te % (SEM) 2 h (human): 40.4 (2.2) %; Te % (SEM) 4 h (human): 64.5 (0.4) %
COc1cc(C=O)cc(OC)c1O [Syringaldehyde]	–	–	Te % (SEM) 2 h (human): 22.7 (1.5)/33.4 (2.2) %; Te % (SEM) 4 h (human): 45.7 (3.2)/42.0 (1.4) %; Te % (SEM) 2 h [1]: 22.7 (1.5)/33.4 (2.2) %; Te % (SEM) 4 h [2]: 45.7 (3.2)/42.0 (1.4) %
Cc1ccc(C(C)C)c(O)c1 [Thymol]	–	–	Te % (SEM) 2 h (human, 2 h, 40 µg/mL): 34.1 (0.1) %; Te % (SEM) 4 h (human, 4 h, 40 µg/mL): 47.0 (1.7) %
CCC(O)C1CC(C)C2(CC(=O)C3(C)C4=C(CCC32C)C2(C)CCC(=O)C(C)(CO)C2CC4)O1 [Triterpene, (23S,24S)-17,23-Epoxy-24,29-dihydroxy-27-norlanost-8-ene-3,15-dione]	–	–	Te % (SEM) 2 h [1]: 30.4 (1.7) %; Te % (SEM) 4 h [2]: 82.9 (5.3) %
C=C(C)[C@@H]1CCC2=CCC[C@@H](C)[C@]2(C)C1 [Valencene]	51.9 (4.2) %	–	–
COc1cc(C(=O)O)ccc1O [Vanillic acid]	–	–	Te % (SEM) 2 h [1]: 38.9 (1.2) %; Te % (SEM) 4 h [2]: 42.2 (0.7) %
CC(C)C1CCC2(C)C3CC=C(C=O)C2C13 (stereo not shown) [Ylangenal]	32.0 (2.7) %	36.9 (0.4) %	–
O=C(O)C=Cc1ccc(O)cc1 [p-Coumaric acid]	–	–	Te % (SEM) 2 h (human): 9.1 (0.6) %; Te % (SEM) 4 h (human): 37.8 (2.5) %
O=C(O)c1ccc(O)cc1 [p-Salycilic acid]	25.5 (1.8) %	43.4 (1.3) %	–
Cc1c(C)c2c(c(C)c1O)CC[C@@](C)(CCC[C@H](C)CCC[C@H](C)CCCC(C)C)O2 [α-Tocopherol]	–	–	Te % (SEM) 2 h (human, 2 h, 15 µg/mL): 18.3 (0.8) %; Te % (SEM) 2 h (human, 2 h, 40 µg/mL): 19.8 (0.2) %; Te % (SEM) 4 h (human, 4 h, 15 µg/mL): 29.1 (1.5) %; Te % (SEM) 4 h (human, 4 h, 40 µg/mL): 39.7 (3.0) %
C=C1CCC[C@]2(C)CC[C@H]3C(C)(C)C[C@]132 [β-Panasinsene]	33.4 (1.5) %	34.8 (1.0) %	–
C=CC(=C)CC/C=C(\C)CC/C=C(\C)C=O [β-Sinensal]	31.6 (1.2) %	38.2 (2.4) %	–
Cc1cc(O)c(C)c2c1O[C@](C)(CCC[C@H](C)CCC[C@H](C)CCCC(C)C)CC2 [β-Tocopherol]	–	15.2 (0.8) %	–
C=CC1(C)CCC(=C(C)C)CC1C(=C)C (stereo not shown) [γ-Elemene]	30.1 (0.1) %	41.8 (1.7) %	–
CC[C@@H](CC[C@@H](C)[C@H]1CC[C@H]2[C@@H]3CC=C4C[C@@H](O)CC[C@]4(C)[C@H]3CC[C@]12C)C(C)C [γ-Sitosterol]	12.9 (0.6)/11.3 (0.5) %	19.2 (1.3)/12.1 (0.6) %	–
Cc1c(O)cc2c(c1C)O[C@](C)(CCC[C@H](C)CCC[C@H](C)CCCC(C)C)CC2 [γ-Tocopherol]	31.5 (0.8)/27.3 (2.1) %	42.0 (0.8)/30.0 (1.6) %	–
CC1=C[C@@H]2C(=C(C)CC[C@H]2C(C)C)CC1 [δ-Cadinene]	21.5 (0.8) %	28.9 (2.4) %	–
Caffeoylshikimic acid	14.3 (0.8) %	29.0 (0.1) %	–
Cymenol	51.5 (1.8) %	–	–
Farnesene	46.0 (2.1) %	50.9 (3.1) %	–
Phytol	–	–	Te % (SEM) 2 h (human): 15.6 (0.3) %; Te % (SEM) 4 h (human): 43.5 (3.7) %
Tocospiro A	2.7 (0.2) %	25.6 (1.5) %	–
Tocospiro B	1.9 (0.1) %	26.2 (1.0) %	–
γ-silenene	52.8 (3.8) %	53.8 (2.8) %	–

Reference: article PMC9820279 (International Journal of Molecular Sciences, 2022)
